The text below walks through data of patent publication US11566007B2, “Ras inhibitors” (Revolution Medicines, Inc., priority 2019, dated 2023).

For assay [1], the system named is NCI-H358 (K-Ras G12C). The assay is described as follows: CellTiter-Glo cell viability assay, NCI-H358. The assay is classed as cell-based, human. The following applies: NCI-H358, 5-day treatment, class symbols, read-out: Additional H358 Cell Viability assay data (K-Ras G12C, IC50). In short, it runs like this:
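Compounds were dispensed directly onto K-Ras mutant cells and incubated until day 5, then plates were equilibrated to room temperature for about 30 minutes before CellTiter-Glo luminescence. Signals were normalized as (sample/average DMSO)*100 and fitted by four-parameter logistic fit.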

The target of assay [2] is K-Ras G12C (Homo sapiens (Human), UniProt P01116+P62937, G12C). Description: Ras-Raf (BRAF RBD) disruption / FRET / MOA assay, KRAS G12C. The class given is biochemical. The following applies: KRAS G12C; Ras-Raf disruption/FRET/MOA assay; read-out: IC50* KRAS G12C FRET data. Summed up:
(§1)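 A 10-point, 3-fold dilution series topping at 30 μM final was incubated 3 h at 25° C with the Ras/cyclophilin A/BRAF RBD mixture.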

The target of assay [3] is K-Ras G13C (Homo sapiens (Human), UniProt P01116+P62937, G13C). The assay is described as follows: Ras-Raf (BRAF RBD) disruption / FRET / MOA assay, KRAS G13C. The class given is biochemical. The following applies: KRAS G13C; Ras-Raf disruption/FRET/MOA assay; read-out: IC50* KRAS G13C FRET data. Summed up:
as §1

In assay [4] the target is KRAS G12S (Homo sapiens (Human), UniProt P01116+P62937, G12S). The assay is described as follows: Ras-Raf (BRAF RBD) disruption / FRET / MOA assay, KRAS G12S. The assay is classed as biochemical. Conditions: Ras-Raf disruption/FRET/MOA assay; class symbols; read-out: KRAS G12S FRET data IC50. Summed up: as §1
KRAS G12S, sequence (P01116-2 other isoform, or with tags, fused parts or gaps G12S): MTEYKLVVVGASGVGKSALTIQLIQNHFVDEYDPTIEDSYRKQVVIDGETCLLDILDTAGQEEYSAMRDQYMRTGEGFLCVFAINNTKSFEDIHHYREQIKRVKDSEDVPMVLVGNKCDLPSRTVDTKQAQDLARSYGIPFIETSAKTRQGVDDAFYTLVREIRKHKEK
KRAS G12S, sequence (P62937 whole entry): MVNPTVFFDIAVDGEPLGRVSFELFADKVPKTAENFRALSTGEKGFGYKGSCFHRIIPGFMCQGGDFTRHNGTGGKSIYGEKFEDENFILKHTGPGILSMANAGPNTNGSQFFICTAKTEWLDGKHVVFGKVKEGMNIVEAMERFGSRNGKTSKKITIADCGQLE
Assay [5] addresses KRAS G12D (Homo sapiens (Human), UniProt P01116+P62937, G12D). The assay is described as follows: Ras-Raf (BRAF RBD) disruption / FRET / MOA assay, KRAS G12D. The class given is biochemical. The following applies: Ras-Raf disruption/FRET/MOA assay; class symbols; read-out: KRAS G12D FRET data IC50. Summed up: as §1
Assay [6] deals with KRAS G12V (Homo sapiens (Human), UniProt P01116+P62937, G12V). The assay is described as follows: Ras-Raf (BRAF RBD) disruption / FRET / MOA assay, KRAS G12V. The class given is biochemical. The following applies: read-out: IC50* KRAS G12V FRET data. In short, it runs like this:
as §1

Assay [7] deals with KRAS WT (Homo sapiens (Human), UniProt P01116+P62937). Description: Ras-Raf (BRAF RBD) disruption / FRET / MOA assay, KRAS WT. The assay is classed as biochemical. Conditions: read-out: IC50* KRAS WT FRET data. Summed up:
as §1

In assay [8] the target is KRAS G13D (Homo sapiens (Human), UniProt P01116+P62937, G13D). The assay is described as follows: Ras-Raf (BRAF RBD) disruption / FRET / MOA assay, KRAS G13D. The class given is biochemical. The following applies: read-out: IC50* KRAS G13D FRET data. Summed up:
as §1

The target in assay [9] is NRAS G12C (Homo sapiens (Human), UniProt P01111+P62937, G12C). Description: Ras-Raf (BRAF RBD) disruption / FRET / MOA assay, NRAS G12C. The assay is classed as biochemical. Conditions: read-out: IC50* NRAS G12C FRET data. In short, it runs like this: as §1
NRAS G12C, sequence (P01111 whole entry G12C): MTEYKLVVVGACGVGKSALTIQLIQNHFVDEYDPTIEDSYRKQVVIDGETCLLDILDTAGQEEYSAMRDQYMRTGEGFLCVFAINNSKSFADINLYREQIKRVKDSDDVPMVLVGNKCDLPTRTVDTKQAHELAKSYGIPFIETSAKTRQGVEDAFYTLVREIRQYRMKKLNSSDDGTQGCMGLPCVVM
NRAS G12C, sequence (P62937 whole entry): as the sequence (P62937 whole entry) above

Molecules are shown by their SMILES. pIC50: −log10 of the molar value. Read-outs that look alike come from different tables or passages of the source.

KRAS G12D, sequence (P01116-2 other isoform, or with tags, fused parts or gaps G12D): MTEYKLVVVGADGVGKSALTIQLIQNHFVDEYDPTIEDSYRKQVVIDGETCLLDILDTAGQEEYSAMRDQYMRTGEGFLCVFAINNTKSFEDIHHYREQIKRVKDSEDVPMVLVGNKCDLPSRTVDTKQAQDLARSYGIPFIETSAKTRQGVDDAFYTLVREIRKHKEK
KRAS G12D, sequence (P62937 whole entry): as the sequence (P62937 whole entry) above
KRAS WT, sequence (P01116-2 other isoform, or with tags, fused parts or gaps): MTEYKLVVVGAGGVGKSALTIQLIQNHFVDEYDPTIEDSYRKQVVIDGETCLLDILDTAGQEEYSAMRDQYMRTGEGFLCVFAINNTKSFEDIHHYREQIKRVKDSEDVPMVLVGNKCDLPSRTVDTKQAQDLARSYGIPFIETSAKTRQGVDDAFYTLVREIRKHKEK
KRAS WT, sequence (P62937 whole entry): as the sequence (P62937 whole entry) above
K-Ras G12C, sequence (P01116-2 other isoform, or with tags, fused parts or gaps G12C): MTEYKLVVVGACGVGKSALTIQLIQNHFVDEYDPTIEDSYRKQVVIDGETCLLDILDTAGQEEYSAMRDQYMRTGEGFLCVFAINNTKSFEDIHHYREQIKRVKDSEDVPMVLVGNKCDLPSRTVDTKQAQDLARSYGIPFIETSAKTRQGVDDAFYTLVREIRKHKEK
K-Ras G12C, sequence (P62937 whole entry): as the sequence (P62937 whole entry) above
KRAS G13D, sequence (P01116-2 other isoform, or with tags, fused parts or gaps G13D): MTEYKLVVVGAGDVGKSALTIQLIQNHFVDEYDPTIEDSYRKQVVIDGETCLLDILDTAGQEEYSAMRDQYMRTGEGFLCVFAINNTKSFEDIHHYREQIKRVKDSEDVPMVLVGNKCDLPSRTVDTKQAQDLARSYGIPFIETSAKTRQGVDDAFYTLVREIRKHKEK
KRAS G13D, sequence (P62937 whole entry): as the sequence (P62937 whole entry) above
K-Ras G13C, sequence (P01116-2 other isoform, or with tags, fused parts or gaps G13C): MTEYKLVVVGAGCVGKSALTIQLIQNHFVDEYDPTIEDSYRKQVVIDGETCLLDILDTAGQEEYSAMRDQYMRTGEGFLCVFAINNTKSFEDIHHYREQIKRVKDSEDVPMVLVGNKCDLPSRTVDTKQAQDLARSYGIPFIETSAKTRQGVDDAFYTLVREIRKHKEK
K-Ras G13C, sequence (P62937 whole entry): as the sequence (P62937 whole entry) above
KRAS G12V, sequence (P01116-2 other isoform, or with tags, fused parts or gaps G12V): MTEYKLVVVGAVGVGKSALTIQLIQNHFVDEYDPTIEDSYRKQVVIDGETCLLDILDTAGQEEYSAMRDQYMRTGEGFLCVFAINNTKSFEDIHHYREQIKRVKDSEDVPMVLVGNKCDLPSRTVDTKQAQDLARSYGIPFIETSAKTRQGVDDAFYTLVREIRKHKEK
KRAS G12V, sequence (P62937 whole entry): as the sequence (P62937 whole entry) above

As to `C=CC(=O)N1CC[C@H](C(=O)N(C2CC2)[C@H](C(=O)N[C@H]2Cc3cccc(c3)-c3ccc4c(c3)c(c(-c3cccnc3[C@H](C)OC)n4CC)CC(C)(C)COC(=O)[C@@H]3CCCN(N3)C2=O)C(C)C)C1` (atropisomer, axis not shown) [Example A398], the pIC50 in assay [1] (Homo sapiens, NCI-H358, 120 h) was 6.00 to 7.00; in [2], 5.00 to 6.00; in [3], 5.00 to 6.00; in [4] it was under 5.00; in assay [5], under 5.00; in [6], 5.00 to 6.00. The figures for the negative logarithm of the IC50 (pIC50) in assay [7], in assay [8] and in [9] were 5.00 to 6.00, under 5.00 and 5.00 to 6.00, respectively.

Regarding `C=CC(=O)N1CC[C@H](C(=O)N(C)[C@H](C(=O)NC2C[C@@H]3CN(CCO3)c3ccc4c(c3)c(c(-c3cccnc3[C@H](C)OC)n4CC)CC(C)(C)COC(=O)[C@@H]3CCCN(N3)C2=O)C(C)C)C1` (stereo partly drawn) [Example A312], the pIC50 in assay [1] (Homo sapiens, NCI-H358, 120 h) is under 6.00; in assay [2] it was under 5.00; in [3], under 5.00; in assay [4], under 5.00; in assay [5], under 5.00; in assay [6] it was under 5.00. Besides, the pIC50 in assay [7], in assay [8] and in assay [9] was under 5.00 throughout.

Regarding `C=CC(=O)N1CC[C@H](C(=O)Nc2ccccc2C(=O)N[C@H]2Cc3cc(O)cc(c3)-c3ccc4c(c3)c(c(-c3cnccc3COC)n4CC)CC(C)(C)COC(=O)[C@@H]3CCCN(N3)C2=O)C1` [Example A229], the pIC50 in assay [1] (Homo sapiens, NCI-H358, 120 h) was under 6.00; in assay [2], 6.00 to 7.00; in assay [3] it was under 5.00; in assay [4], under 5.00; in [5], under 5.00; in assay [6], under 5.00. Also, the pIC50 was under 5.00 in [7], under 5.00 in [8] and 5.00 to 6.00 in assay [9].

Turning to `C=CC(=O)N1CC[C@H](C(=O)N(C)[C@H](C(=O)N[C@@H]2C(=O)N3CCC[C@H](N3)C(=O)OCC(C)(C)Cc3c(-c4cncnc4)n(CC)c4ccc(cc34)-c3cccc(c3)[C@H]2OC)C(C)C)C1` [Example A273], the pIC50 in assay [1] (Homo sapiens, NCI-H358, 120 h) was under 6.00; in assay [2], under 5.00; in assay [3], under 5.00; in [4], under 5.00; in assay [5], under 5.00; in assay [6] it was under 5.00. Also, the pIC50 in assay [7], in [8] and in [9] was under 5.00 in each case.

On to `C=CC(=O)N1CC[C@H](C(=O)N(C)[C@H](C(=O)N[C@H]2Cc3cc(O)cc(c3)-c3ccc4c(c3)c(c(-c3cccnc3CNC)n4CC)CC(C)(C)COC(=O)[C@@H]3CCCN(N3)C2=O)C(C)C)C1` [Example A137], for which the pIC50 in assay [1] (Homo sapiens, NCI-H358, 120 h) is under 6.00; in assay [2], 6.00 to 7.00; in [3], under 5.00; in [4] it was 5.00 to 6.00; in assay [5] it was under 5.00; in assay [6], 5.00 to 6.00. In addition, the pIC50 is 5.00 to 6.00 in assay [7], under 5.00 in assay [8] and 6.00 to 7.00 in assay [9].

Consider `C=CC(=O)N1CC[C@H](C(=O)N(C)[C@H](C(=O)N[C@H]2Cc3cccc(c3)-c3ccc4c(c3)c(c(-c3cc(CN(C)C)cnc3[C@H](C)OC)n4CC)CC(C)(C)COC(=O)[C@@H]3CCCN(N3)C2=O)C(C)C)C1` [Example A523], for which the pIC50 was 6.00 to 7.00 in [1] (Homo sapiens, NCI-H358, 120 h); 5.00 to 6.00 in assay [2]; under 5.00 in assay [3]; under 5.00 in assay [4]; under 5.00 in [5]; under 5.00 in assay [6]. Further, the pIC50 in assay [7] was under 5.00; in assay [8], under 5.00; in assay [9] it was 5.00 to 6.00.

For `C=CC(=O)N1CC[C@H](C(=O)N(C)[C@H](C(=O)N[C@H]2Cc3cccc(c3)-c3ccc4c(c3)c(c(-c3cccnc3[C@H](C)OC)n4CC)CC(C)(C)COC(=O)[C@@H]3CCCN(N3)C2=O)C(C)C)[C@@H]1C` (atropisomer, axis not shown) [Example A480], the pIC50 in [1] (Homo sapiens, NCI-H358, 120 h) is under 6.00; in assay [2], 5.00 to 6.00; in assay [3] it was 5.00 to 6.00; in assay [4] it was under 5.00; in assay [5], under 5.00; in assay [6] it was under 5.00. The pIC50 in [7] is under 5.00; in assay [8], under 5.00; in [9], 5.00 to 6.00.

As to `C=CC(=O)N1CC[C@H](C(=O)N(C)[C@H](C(=O)N[C@H]2CC3=NN=C(S3)c3ccc4c(c3)c(c(-c3cccnc3COC)n4CC)CC(C)(C)COC(=O)[C@@H]3CCCN(N3)C2=O)C(C)C)C1` [Example A236], the pIC50 in assay [1] (Homo sapiens, NCI-H358, 120 h) was under 6.00; in [2] it was under 5.00; in assay [3], under 5.00; in assay [4], under 5.00; in assay [5] it was under 5.00; in assay [6], under 5.00. For the same molecule, the pIC50 in assay [7], in assay [8] and in assay [9] was under 5.00 each time.

For `C=CC(=O)N1CC[C@H](C(=O)N(C)[C@H](C(=O)N[C@H]2Cc3nc(cs3)-c3ccc4c(c3)c(c(-c3cccnc3[C@H](C)OC)n4CC)CC(C)(C)CCC[C@@H]3CCCN(N3)C2=O)C(C)C)C1` (atropisomer, axis not shown) [Example A288], the pIC50 is under 6.00 in assay [1] (Homo sapiens, NCI-H358, 120 h); under 5.00 in assay [2]; under 5.00 in assay [3]; under 5.00 in [4]; under 5.00 in [5]; under 5.00 in assay [6]. Further, the pIC50 in assay [7], in assay [8] and in assay [9] was under 5.00 in each case.

For the molecule `C/C=C(\C)S(=O)(=O)N1CC[C@H](C(=O)N(C)[C@H](C(=O)N[C@H]2Cc3cccc(c3)-c3ccc4c(c3)c(c(-c3cccnc3[C@H](C)OC)n4CC)CC(C)(C)COC(=O)[C@@H]3CCCN(N3)C2=O)C(C)C)C1` (atropisomer, axis not shown) [Example A308], the pIC50 in assay [1] (Homo sapiens, NCI-H358, 120 h) was 6.00 to 7.00; in assay [2], under 5.00; in [3], 5.00 to 6.00; in assay [4], under 5.00; in assay [5], under 5.00; in assay [6] it was under 5.00. Moreover, the pIC50 in assay [7], in [8] and in assay [9] was under 5.00 throughout.

Turning to `C=CC(=O)N1CC[C@H](C(=O)N(C)[C@H](C(=O)N[C@H]2Cc3ncc(n3C)-c3ccc4c(c3)c(c(-c3cccnc3[C@H](C)OC)n4CC)CC(C)(C)COC(=O)[C@@H]3CCCN(N3)C2=O)C(C)C)C1` (atropisomer, axis not shown) [Example A276], the pIC50 in assay [1] (Homo sapiens, NCI-H358, 120 h) was under 6.00; in assay [2], 5.00 to 6.00; in assay [3], under 5.00; in [4], under 5.00; in [5] it was under 5.00; in assay [6], under 5.00. Moreover, the pIC50 in assay [7] was under 5.00; in assay [8], under 5.00; in assay [9] it was 5.00 to 6.00.

For `C=CC(=O)N1CC(OCC(C(=O)N[C@H]2Cc3cccc(c3)-c3ccc4c(c3)c(c(-c3cccnc3[C@H](C)OC)n4CC)CC(C)(C)COC(=O)[C@@H]3CCCN(N3)C2=O)C(C)C)C1` (mixture of isomers) [Example A484], the pIC50 in assay [1] (Homo sapiens, NCI-H358, 120 h) was 6.00 to 7.00; in assay [2], 6.00 to 7.00; in [3], 5.00 to 6.00; in [4] it was under 5.00; in assay [5], under 5.00; in assay [6], under 5.00. For the same molecule, the pIC50 is under 5.00 in [7], under 5.00 in assay [8] and 5.00 to 6.00 in assay [9].

For the molecule `C=CC(=O)N1CC(O[C@H](C(=O)N[C@H]2Cc3cc(O)cc(c3)-c3ccc4c(c3)c(c(-c3cccnc3COC)n4CC)CC(C)(C)COC(=O)[C@@H]3CCCN(N3)C2=O)C(C)C)C1` [Example A235], the pIC50 in assay [1] (Homo sapiens, NCI-H358, 120 h) is under 6.00; in assay [2], 5.00 to 6.00; in assay [3], 5.00 to 6.00; in [4], under 5.00; in assay [5] it was under 5.00; in assay [6] it was under 5.00. The figures for the pIC50 in [7], in assay [8] and in assay [9] were under 5.00, under 5.00 and 5.00 to 6.00, respectively.

Regarding `CCn1c(-c2cccnc2COC)c2c3cc(ccc31)-c1cc(O)cc(c1)C[C@H](NC(=O)[C@H](C(C)C)N(C)C(=O)[C@H]1CCC(C(=O)/C=C\CN(C)C)C1)C(=O)N1CCC[C@H](N1)C(=O)OCC(C)(C)C2` (stereo partly drawn) [Example A161], the pIC50 is under 6.00 in assay [1]; 6.00 to 7.00 in assay [2]; 5.00 to 6.00 in [3]; 5.00 to 6.00 in [4]; under 5.00 in assay [5]; 5.00 to 6.00 in [6]. Moreover, the pIC50 is 5.00 to 6.00 in assay [7], 5.00 to 6.00 in assay [8] and 6.00 to 7.00 in assay [9].

For orientation: pIC50 means the IC50 on a negative log10 scale, so that one unit is a factor of ten.
